“And” between values parts separate entries of the source, which are not always exact repeats. Equal values may be shown once.
Columns and labels:
[1] = Ex vivo liver homogenate stability assay (HPLC-TOF MS); conditions: 24 hours at 37° C.; for ex vivo (liver) N %↓: full-length compound; for ex vivo (liver) % Endo / ex vivo (liver) % N − 1: 5 μM oligonucleotide in liver homogenate; for ex vivo (liver) % N − 1: compound lacking the 3′-terminal nucleoside
[2] = In vivo stability of compound in kidney tissue after administration to mice; conditions: kidney tissue after administration; for in vivo (kidney) N − 1 (%): compound lacking the 3′-terminal nucleoside; for in vivo (kidney) N (%): full-length compound
miR-21 = miR-21 luciferase sensor assay in Hela cells; assay type: cell-based; conditions: Hela cells
Procedure: The compounds were assessed for miR-21 inhibitory activity in a luciferase assay. A microRNA luciferase sensor construct was engineered using pGL3-MCS2 (Promega). The construct was introduced into Hela cells to test the ability of anti-miR compounds to inhibit activity of miR-21. In this assay, miR-21 present in the Hela cells binds to its cognate site(s) in the luciferase sensor construct, and suppresses luciferase expression. When the appropriate anti-miR is introduced into the cells, it binds to miR-21 and relieves suppression of luciferase expression. Thus, in this assay anti-miRs that are effective inhibitors of miR-21 expression will cause an increase in luciferase expression.
Hela cells (ATCC), stably transfected with a luciferase construct engineered to contain a sequence complementary of miR-21, were seeded in T-170 flasks (BD Falcon) at 3.5*10^6 cells/flask. Hela cells were grown in Dulbecco's Modified Eagle Medium with High Glucose (Invitrogen).
Each flask of Hela cells was transfected with 0.5 ug of a phRL sensor plasmid (Promega) expressing Renilla to be used in normalization. Hela cells were transfected using 20 ul Lipofectamine 2000/flask (Invitrogen). After 4 hours of transfection, cells were washed with PBS and trypsinized Hela cells were plated at 40 k/well in 24 well plates (BD Falcon) and left overnight.
Hela cells were transfected with anti-miRs using Lipofectin (Invitrogen) at 2.5 ul Lipofectin/100 nM ASO/ml Opti-MEM I Reduced Serum Medium (Invitrogen) for 4 hours. After ASO transfection, Hela cells were refed with Dulbecco's Modified Eagle Medium with High Glucose (Invitrogen).
Hela cells are passively lysed and luciferase activity measured using the Dual-Luciferase Reporter Assay System (Promega).
The luciferase assay was performed to test the ability of anti-miRs with the nucleoside patterns described herein to inhibit the activity of miR-21. Results were compared to a ‘mock’ treatment, in which cells received no anti-miR treatment. The experiment was repeated and results of two experimental replicates are shown in the following Table B, as the luciferase value normalized to beta-galactosidase activity.
The luciferase assay was performed as described herein to test the ability of anti-miRs in Table F to inhibit the activity of miR-21. Results were compared to a ‘mock’ treatment, in which cells received no anti-miR treatment. The experiment was repeated and results of two experimental replicates are shown in the following Table D, as fold change in luciferase value relative to the mock treatment.

[3] = test system: UUO model of kidney fibrosis; assay: Unilateral ureteral obstruction (UUO) model of kidney fibrosis: kidney collagen 1A1 and collagen 3A1 expression by real-time PCR; assay type: in vivo, mice; conditions: for Collagen 3A1 (Normalized Expression) Mean / Collagen 1A1 (Normalized Expression) Mean / Collagen 1A1 (Normalized Expression) / Collagen 3A1 (Normalized Expression): Table K, UUO mice, kidney at day 11; for Collagen 3A1 (Normalized Expression) Mean / Collagen 1A1 (Normalized Expression) Mean: group mean; for Collagen 3A1 (Normalized Expression) Mean / Collagen 1A1 (Normalized Expression) Mean / reduction in collagen expression (in words): 20 mg/kg at days -3, -1, +5; for Collagen 3A1 (Normalized Expression) Mean: UUO-PBS mean 87.2; for Collagen 1A1 (Normalized Expression) Mean: UUO-PBS mean 114.9; for Collagen 1A1 (Normalized Expression) / Collagen 3A1 (Normalized Expression): individual animals, 20 mg/kg at days -3, -1, +5 (prophylactic), real-time PCR normalized to GAPDH then sham, 20 mg/kg; for reduction in collagen expression (in words): meta-analysis of UUO studies
Procedure: Unilateral ureteral obstruction (UUO) is a well-established experimental model of renal injury leading to interstitial fibrosis, and thus is used as an experimental model that is reflective of human kidney disease. UUO is induced by surgically ligating a single ureter. As fibrosis is characterized by an increase in collagen, the presence and extent of kidney fibrosis may be determined by measuring collagen content. Both collagen 1A1 (Col 1A1) and collagen 3A1 (Col 3A1) are measured to assess collagen content. Kidney fibrosis may be visualized by staining tissue samples with picro-sirius red to detect increases in collagen content. Kidney fibrosis may also be observed by measuring the amount of hydroxyproline, which is a major component of collagen, in a sample.
The cEt-containing anti-miR-21 compounds found to be active in the luciferase assay were tested in the UUO model of kidney fibrosis. 25919 comprising 2′-MOE and 2′-fluoro modifications is known to inhibit miR-21 activity in vivo and was included as a positive control. Groups of 8 animals each were treated as follows: UUO only, UUO with PBS, or UUO with anti-miR-21 compound. Relative to the day of the UUO procedure, PBS or anti-miR-21 compound was administered at days −3, −1, and +5. Anti-miR-21 compounds were administered at a dose of 20 mg/kg. As the anti-miR compounds were administered prior to the UUO procedure, this dosing regimen is considered a prophylactic treatment. At day 11, animals were sacrificed and kidney was isolated for measurement of collagen expression. Collagen expression was measured by real-time PCR and normalized first to GAPDH and then to the sham control animals.
The UUO study was repeated to confirm the activity of 25070. The anti-miR was administered subcutaneously at a dose of 20 mg/kg.
Control treatment groups included UUO only (sham) and UUO with PBS administered subcutaneously. An additional control group included UUO with Tween-MC/20 carrier perorally. 25070 administered subcutaneously at dose of 20 mg/kg at 5 days prior to, 2 days prior to, and 3 days after, the UUO procedure. Irbesartan was administered perorally on daily on days 0 through 7 following the UUO procedure. Animals were sacrificed on Day 10 following the UUO procedure. Kidney tissue was collected for measurement of collagen 1A1 and collagen 3A1 expression.
Compounds 25220 and 25221, as well as 25923, were tested in the UUO model for their effects on fibrosis. Groups of 8 animals each were treated as follows: sham surgery, UUO with PBS, UUO with 25220, UUO with 25221, or UUO with 25923. Relative to the day of the UUO procedure, PBS or anti-miR-21 compound was administered at days −5, −3, and +3. Anti-miR-21 compounds were administered at a dose of 20 mg/kg. As the anti-miR compounds were administered prior to the UUO procedure, this dosing regimen is considered a prophylactic treatment. At day 10, animals were sacrificed and kidney was isolated for measurement of collagen expression. Collagen expression was measured by real-time PCR and normalized to GAPDH.

[4] = 5 μM oligonucleotide in liver homogenate (50 mg tissue per ml)
[5] = 500 nM oligonucleotide, two experimental replicates

Substance	compound lacking the 3′-terminal nucleoside [1, 4]	compound present as the full-length compound [1, 4]	ex vivo (liver) N %↓ [1, 4]	ex vivo (liver) % Endo [1]	ex vivo (liver) % N − 1 [1]	in vivo (kidney) N − 1 (%) [2]	in vivo (kidney) N (%) [2]	luciferase value normalized to beta-galactosidase activity (miR-21; 4 nM oligonucleotide)	luciferase value normalized to beta-galactosidase activity (miR-21; 20 nM oligonucleotide)	luciferase value normalized to beta-galactosidase activity (miR-21; 100 nM oligonucleotide)	luciferase value normalized to beta-galactosidase activity (miR-21; [5])	luciferase value normalized to beta-galactosidase activity (miR-21; .16 nM oligonucleotide)	luciferase value normalized to beta-galactosidase activity (miR-21; .8 nM oligonucleotide)	inhibition of miR-21 activity in the luciferase assay (in words) (miR-21)	Collagen 3A1 (Normalized Expression) Mean [3]	Collagen 1A1 (Normalized Expression) Mean [3]	Collagen 1A1 (Normalized Expression) [3]	Collagen 3A1 (Normalized Expression) [3]	reduction in collagen expression (in words) [3]
AECSATCSAGTCSTGAUSAAGCSTAS (antisense ACATCAGTCTGATAAGCTA; cEt and 2'-MOE nucleosides) [Compound 25923]	about 18%	About 68%	17%	2-3%	13%	14 ± 5%	58 ± 3%	–	–	–	–	–	–	–	–	–	–	–	–
TE^MeCEAEAECSAETECSAEGETECSTEGEAEUSAEAEGECSTEAE (TCAACATCAGTCTGATAAGCTA; modified nucleosides and phosphorothioate, code letters not given here, further chemistry not given here) [Compound 25068]	–	–	–	–	–	–	–	64	86	97	122	45	54	inhibition of miR-21 in a dose-dependent manner	60.6	96.4	84.7 and 75.1 and 85.5 and 89.1 and 90.4 and 125.8 and 124.4	64.8 and 56.2 and 47.4 and 76.2 and 57.0 and 63.0 and 59.6	active in reducing collagen expression, but to a lesser extent than 25070
AECSATCSAGTCSTGAUSAAGCSUsAS (ACATCAGTCTGATAAGCTA; sugar and backbone modifications) [Compound 25221]	–	–	3%	3%	0%	4 ± 1%	76 ± 4%	–	–	–	–	–	–	–	–	–	–	–	–
TE^MeCAACSATCSAGTCSTGAUSAAGCSTAE (TCAACATCAGTCTGATAAGCTA; modified nucleosides with 5-methyl C, code letters not given here, further chemistry not given here) [Compound 25082]	–	–	–	–	–	–	–	112	147	176	202	70	89	inhibition of miR-21 in a dose-dependent manner	59.1	91.7	122.2 and 188.3 and 102.5 and 67.6 and 40.6 and 44.1 and 73.8 and 94.7	62.9 and 78.9 and 82.2 and 43.8 and 32.6 and 34.3 and 75.8 and 62.5	did not consistently demonstrate a reduction in collagen expression
AECSAETECSAEGETECSTEGEAEUSAEAEGECSTEAE (ACATCAGTCTGATAAGCTA; anti-miR; sugar and backbone modifications, code letters not given here, further chemistry not given here) [Compound 25072]	–	–	–	–	–	–	–	76	86	115	143	40	49	inhibition of miR-21 in a dose-dependent manner	65.5	113.8	96.2 and 85.7 and 127.4 and 100.0 and 159.2 and 120.5 and 108.0	69.4 and 54.5 and 58.8 and 69.2 and 93.8 and 65.8 and 46.9	did not consistently demonstrate a reduction in collagen expression

Source: patent US20120270928A1, “MICRORNA COMPOUNDS AND METHODS FOR MODULATING MIR-21 ACTIVITY” (REGULUS THERAPEUTICS INC., priority 2011, published 2012)
